Measured values reported in US10428028B2, “HDAC inhibitors” (BIOMARIN PHARMACEUTICAL INC., priority 2013, dated 2019).

How the values were obtained:
HDAC1 = HDAC1 (Homo sapiens (Human), UniProt Q13547); experiment: HDAC enzyme inhibition assay (Fluor-de-Lys), HDAC1; assay type: biochemical; settings: 2 hours pre-incubation
Description: (§1) The HDAC activity inhibition assay was performed as follows to determine the ability of a test compound to inhibit HDAC enzymatic activity. Serial dilutions of HDAC inhibitors were prepared in HDAC assay buffer (25 mM Tris/HCl, pH 8.0, 137 mM NaCl, 2.7 mM KCl, 1 mM MgCl2, pH 8) in 96-well assay plates (Fisher scientific, #07-200-309) and were pre-incubated for 2 hours at room temperature in the presence of 125 μg/ml BSA and purified HDAC1 (BPS Bioscience, San Diego, Calif., #50051), HDAC2 (BPS Bioscience, #50053), or HDAC3/NcoR2 (BPS Bioscience, #50003) at concentrations of 1.25, 1.32, and 0.167 μg/mL, respectively. Following pre-incubation, Fluor-de-Lys™ substrate (Enzo Life Sciences, Plymouth Meeting, Pa., BML-KI104-0050) was added to a final concentration of 10 μM and plates were further incubated for 30 minutes at room temperature. The enzymatic reaction was stopped by addition of Trichostatin A (Sigma-Aldrich, St Louis, Mo., #T8552, final concentration: 100 nM) and trypsin (MP Biomedicals, Solon, Ohio, #02101179) was added to reach a final concentration of 100 μg/mL. After a 15 minute incubation at room temperature, fluorescence was recorded using a Spectramax M2 fluorometer (Molecular Devices, Sunnyvale, Calif.) with excitation at 365 nm and emission at 460 nm. IC50 values were calculated by using a sigmoidal dose-response (variable slope) equation in GraphPad Prism® 5 for Windows (GraphPad Software, La Jolla, Calif.). Results for selected compounds in the HDAC activity inhibition assay are presented in Table 5 (IC50 ranges: IA>20 μM, A<1 μM, 1<B<5 μM, 5<C<10 μM, 10<D<20 μM, ND: not determined).

HDAC2 = HDAC2 (Homo sapiens (Human), UniProt Q92769); experiment: HDAC enzyme inhibition assay (Fluor-de-Lys), HDAC2; assay type: biochemical; settings: 2 hours pre-incubation
Description: as §1

[1] = Brain penetration studies; assay type: in vivo; settings: C57/BL6/J, mouse; mice, s.c. 5 or 50 mg/kg or i.v. 5 mg/kg; Cmax(brain)/Cmax(plasma); read-out: BPR (brain/plasma ratio)
Description: Test compounds were prepared at either 0.5 mg/ml or 5 mg/ml in 30% hydroxypropyl-β-cyclodextrin, 100 mM sodium acetate pH 5.5, 5% DMSO. C57/BL6/J mice were dosed s.c. at 5 mg/kg or 50 mg/kg, or i.v. at 5 mg/kg. Animals were euthanized at pre-dose, 5, 15, 30 min, 1, 2 and 4 hours post-dose and plasma and brain obtained. Three animals per dose per time points were used. The levels of compound in the plasma and brain were determined by standard LC/MS/MS methods. Brain/plasma ratio (BPR) was calculated as the ratio of the Cmax(brain)/Cmax(plasma). The results are shown in Table 5, where IA corresponds to a BPR less than 0.1, D is between 0.1 and 0.2, C is 0.2 to 0.5, B comprises 0.5 to 1 and A is greater than 1.

[2] = system: GM 15850 (lymphoblastoid cells line) cells; experiment: In-cell deacetylase inhibition assay (DAC assay); assay type: cell-based; settings: Homo sapiens, GM15850; GM 15850 cells, 4 h incubation
Description: GM 15850 (lymphoblastoid cells line) cells were seeded in 96-well plates at an appropriate density (100,000 cells/well) in 90 μL, RPMI1640 medium containing 10% v/v fetal bovine serum (FBS), 1% v/v penicillin/streptomycin, and 1% v/v L-glutamine. Compound dilutions were made in 100% DMSO followed by parallel dilution in media with 2% DMSO. 10 μl of the compound dilutions were added to the cells to achieve the desired concentrations. The final concentration of DMSO in each well was 0.2%. The cells were incubated for 4 h at 37° C. with 5% CO2. After incubation, the cells were centrifuged down and the supernatant was removed. The cell pellets were washed with 100 μL, phosphate-buffered saline (PBS) and then lysed with 45 μL, lysis buffer (HDAC assay buffer at pH 8.0 (25 mM Tris/HCl, 137 mM NaCl, 2.7 mM KCl, 1 mM MgCl2)+1% v/v Igepal CA-630). To initiate the reaction, the HDAC substrate KI-104 (Enzo Life Sciences, Farmingdale, N.Y.) was added to a final concentration of 50 μM. The reaction was stopped after 30 min incubation by addition of 50 μL, developer (6 mg/mL trypsin in HDAC assay buffer). The reaction was allowed to develop for 30 min at room temperature and the fluorescence signal was detected using a fluorometer (Spectramax M2, Molecular Devices, Sunnyvale, Calif.) with excitation and emission wavelengths of 360 nm and 470 nm respectively. The data was fitted to a sigmoidal dose response equation with variable slope in GraphPad Prism 5.0 (GraphPad Software, La Jolla, Calif.) to determine IC50. Bottom and top of the curve were fixed to the average fluorescence response of control wells with no cells and cells but no compound respectively. IC50's are reported in Table 5, where A stands for IC50 less than 1 μM, B between 1 and 5 μM, C from 5 to 10 μM, D from 10 to 20 μM, and IA for IC50 above 20 μM.

[3] = Acid stability determination; assay type: physicochemical; settings: 0.01 M HCl, 50° C., 100 μM
Description: A 100 μM solution of test compound was prepared by dilution of a 10 mM DMSO stock solution in a 0.01 M solution of HCl in deionized water. Immediately after mixing, an aliquot (100 μL) was sampled and analyzed by HPLC/UV. The area under the compound peak was determined and used as the time zero reference point. The remainder of the acid sample was incubated at 50° C. and samples were taken after 2, 4, and 24 hours of incubation. On a few occasions, samples were taken at 30 rather than 24 hours. These were analyzed by the same HPLC/UV method and the area of the peak corresponding to the test compound was measured. Percent remaining at a given time point was then calculated as the ratio of the area under the peak after incubation to that at time zero times 100. In those cases where a 30 hour time point was recorded, the percent remaining at 24 hours was obtained by interpolation of the percent remaining versus time curve assuming a unimolecular process, i.e. a monoexponential decay. Percent remaining after 24 hours incubation are presented in Table 5 below, where A corresponds to more than 60%, B is between 40 and 60%, C covers 20 to 40% and D means less than 20%.

HDAC2, sequence (Q92769 whole entry): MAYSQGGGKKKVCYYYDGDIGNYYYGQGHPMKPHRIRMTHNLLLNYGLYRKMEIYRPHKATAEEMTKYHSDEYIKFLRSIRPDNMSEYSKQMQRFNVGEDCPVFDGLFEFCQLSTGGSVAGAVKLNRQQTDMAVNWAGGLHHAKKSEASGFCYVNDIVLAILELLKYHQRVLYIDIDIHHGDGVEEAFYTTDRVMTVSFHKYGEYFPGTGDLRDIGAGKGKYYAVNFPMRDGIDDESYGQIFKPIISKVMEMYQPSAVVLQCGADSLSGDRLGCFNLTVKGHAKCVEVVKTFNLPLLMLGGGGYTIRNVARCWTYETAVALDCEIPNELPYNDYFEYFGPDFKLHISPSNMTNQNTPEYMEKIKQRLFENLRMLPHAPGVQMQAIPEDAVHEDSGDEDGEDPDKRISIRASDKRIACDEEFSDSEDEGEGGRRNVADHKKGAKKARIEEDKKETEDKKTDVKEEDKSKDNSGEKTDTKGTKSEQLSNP
HDAC1, sequence (Q13547 whole entry): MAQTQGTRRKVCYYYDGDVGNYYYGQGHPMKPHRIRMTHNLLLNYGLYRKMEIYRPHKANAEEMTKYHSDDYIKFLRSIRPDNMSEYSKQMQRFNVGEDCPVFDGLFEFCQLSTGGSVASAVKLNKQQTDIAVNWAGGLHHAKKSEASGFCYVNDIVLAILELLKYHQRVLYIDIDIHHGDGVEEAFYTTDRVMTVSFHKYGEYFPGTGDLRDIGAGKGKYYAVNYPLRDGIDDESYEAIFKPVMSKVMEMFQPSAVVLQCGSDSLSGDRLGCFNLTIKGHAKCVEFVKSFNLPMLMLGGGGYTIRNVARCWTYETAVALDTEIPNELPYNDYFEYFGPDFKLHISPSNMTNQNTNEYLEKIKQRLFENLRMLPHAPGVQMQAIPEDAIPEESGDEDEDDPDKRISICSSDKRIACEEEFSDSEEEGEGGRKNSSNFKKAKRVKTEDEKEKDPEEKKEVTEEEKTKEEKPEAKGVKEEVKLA

Row | Structure (SMILES) | IC50 (HDAC1) [nM] | IC50 (HDAC2) [nM] | Kp [1] | IC50 [2] [nM] | Acid Stability % Left 24 hr [3]
1 | Nc1ccccc1NC(=O)c1ccc2c(cnn2Cc2cccnc2)c1 [Compound A1] | < 1000 | < 1000 | 0.2 to 0.5 | < 1000 | –
2 | Cn1cc(Cn2ncc3cc(C(=O)Nc4ccccc4N)ccc32)cn1 [Compound A3] | < 1000 | < 1000 | 0.2 to 0.5 | < 1000 | –
3 | Cc1ccc(Cn2ncc3cc(C(=O)Nc4ccccc4N)ccc32)c(C)n1 [Compound A5] | < 1000 | < 1000 | 0.2 to 0.5 | < 1000 | –
4 | Nc1cc(F)ccc1NC(=O)c1ccc2c(cnn2Cc2cccnc2)c1 [Compound A6] | < 1000 | < 1000 | – | 1000 to 5000 | A (A corresponds to more than 60%)
5 | Nc1ccccc1NC(=O)c1ccc2c(cnn2Cc2ccc(F)c(F)c2)c1 [Compound A9] | < 1000 | < 1000 | > 1 | – | A (A corresponds to more than 60%)
6 | Nc1cc(F)ccc1NC(=O)c1ccc2c(cnn2CC2CC2)c1 [Compound A12] | 1000 to 5000 | 5000 to 10000 | 0.5 to 1 | > 20000 | B (B is between 40 and 60%)
7 | Nc1ccccc1NC(=O)c1ccc2nn(Cc3cncc(F)c3)cc2c1 [Compound A14, N-(2-aminophenyl)-2-((5-fluoropyridin-3-yl)methyl)-2H-indazole-5-carboxamide] | < 1000 | – | 0.2 to 0.5 | < 1000 | –

Continued, values first:

Row | IC50 (HDAC1) [nM] | IC50 (HDAC2) [nM] | Kp [1] | IC50 [2] [nM] | Acid Stability % Left 24 hr [3] | Structure (SMILES)
8 | < 1000 | < 1000 | > 1 | < 1000 | B (B is between 40 and 60%) | Nc1ccccc1NC(=O)c1ccc2c(cnn2Cc2ccccc2)c1 [Compound A2]
9 | < 1000 | – | 0.2 to 0.5 | < 1000 | – | Nc1ccccc1NC(=O)c1ccc2c(cnn2Cc2cncc(F)c2)c1 [Compound A4, N-(2-aminophenyl)-1-((5-fluoropyridin-3-yl)methyl)-1H-indazole-5-carboxamide]
10 | < 1000 | < 1000 | 0.2 to 0.5 | 1000 to 5000 | B (B is between 40 and 60%) | Nc1cc(F)ccc1NC(=O)c1ccc2c(cnn2Cc2cncc(F)c2)c1 [Compound A7]
11 | < 1000 | 1000 to 5000 | – | 1000 to 5000 | A (A corresponds to more than 60%) | Cc1ccc(Cn2ncc3cc(C(=O)Nc4ccc(F)cc4N)ccc32)c(C)n1 [Compound A8]
12 | < 1000 | < 1000 | < 0.1 | < 1000 | – | Nc1ccccc1NC(=O)c1ccc2nn(Cc3cccnc3)cc2c1 [Compound A13]
13 | < 1000 | 1000 to 5000 | < 0.1 | < 1000 | – | Cc1ccc(Cn2cc3cc(C(=O)Nc4ccccc4N)ccc3n2)c(C)n1 [Compound A15]
